{"source": "patent US20050085491A1", "about": "“Novel crystalline forms of valacyclovir hydrochloride” (priority 2003, published 2005)", "key": {"[1]": {"assay": "transformation of crystalline form on drying or squeezing (form identified by XRD)", "assay_type": "physicochemical", "procedure": "All powder x-ray diffraction patterns were obtained by methods known in the art using a Scintag X′TRA X-ray powder diffractometer, equipped with a solid state Si(Li) detector thermoelectrically cooled, at scanning speed of 3° min.^−1. The scanning range was 2-40 degrees two-theta. Copper radiation of […] was used. The term x-ray diffraction “peaks” as used herein refers to x-ray diffraction reflections measured using an x-ray powder diffractometer. “Wet” samples (i.e. samples not dried) were analyzed “as is”. Dry samples were gently ground before analysis.\nIn yet another embodiment, the present invention relates to transformation, especially by drying or thermal treatment, of herein disclosed crystalline forms of valacyclovir hydrochloride to valacyclovir hydrochloride form I.\nIn a further embodiment, the present invention relates to transformation, especially by drying or squeezing, of herein disclosed crystalline forms of valacyclovir hydrochloride to valacyclovir hydrochloride for IV."}, "[2]": {"assay": "transformation of crystalline form on exposure to relative humidity", "assay_type": "physicochemical", "settings": "atmosphere of about 50% relative humidity for a day or more"}, "[3]": {"settings": "oral administration; cited from earlier work"}, "[4]": {"settings": "oral administration, healthy adults; cited from earlier work"}, "[5]": {"settings": "drying, conditions not stated, hydrochloride"}, "[6]": {"settings": "drying at 50° to 60° C. for about 30 min or more, hydrochloride"}}, "note": "Entries after “also recorded” stand apart in the source; their conditions may differ."}
{"smiles": "CC(C)[C@H](N)C(=O)OCCOCn1cnc2c(=O)nc(N)[nH]c21.Cl", "note": "[form XI, valacyclovir hydrochloride]", "values": [{"measurement": "crystalline form obtained on drying", "setting": "[1]; about 700 mm Hg, about 35° C., after 16 hours, about 35% humidity", "result": "form VIII"}, {"measurement": "crystalline form obtained on drying", "setting": "[1]; about 700 mm Hg, about 35° C., after 20 hours, 30% humidity", "result": "form IV"}, {"measurement": "crystalline form obtained on drying", "setting": "[1]; [5]", "result": "transformed to form I; also recorded: converted to form I"}, {"measurement": "crystalline form obtained on drying", "setting": "[1]; vacuum of 250-350 mm Hg at about 35 degrees up to humidity of about 20%", "result": "form IV"}, {"measurement": "crystalline form obtained on reducing the water content", "setting": "[1]; water content reduced to about 15 to 25%, e.g. by drying at about 30° to about 50° C.", "result": "transformation to form IV"}, {"measurement": "crystalline form obtained on squeezing", "setting": "[1]; wet sample squeezed on a Buchner filter up to humidity of about 20%", "result": "form VIII"}]}
{"smiles": "CC(C)[C@H](N)C(=O)OCCOCn1cnc2c(=O)nc(N)[nH]c21.Cl", "note": "[form X, valacyclovir hydrochloride]", "values": [{"measurement": "crystalline form obtained on drying", "setting": "[1]; [6]", "result": "yields a hydrate of valacyclovir form I"}]}
{"smiles": "CC(C)[C@H](N)C(=O)OCCOCn1cnc2c(=O)nc(N)[nH]c21.Cl", "note": "[form XII, valacyclovir hydrochloride]", "values": [{"measurement": "crystalline form obtained on exposure to humidity", "setting": "[2]", "result": "transformation to valacyclovir hydrochloride form I"}]}
{"smiles": "CC(C)[C@H](N)C(=O)OCCOCn1cnc2c(=O)nc(N)[nH]c21.Cl", "note": "[form VIII, valacyclovir hydrochloride]", "values": [{"measurement": "crystalline form obtained on drying", "setting": "[1]; drying at 20° to 120° C. for at least about 30 min", "result": "yields a hydrate of valacyclovir hydrochloride form I"}, {"measurement": "crystalline form obtained on drying", "setting": "[1]; drying at 50-120° C.", "result": "resulted in form I"}]}
{"smiles": "CC(C)[C@H](N)C(=O)OCCOCn1cnc2c(=O)nc(N)[nH]c21.Cl", "note": "[form IX, valacyclovir hydrochloride]", "values": [{"measurement": "crystalline form obtained on drying", "setting": "[1]; [6]", "result": "yields an anhydrous form of valacyclovir hydrochloride"}, {"measurement": "crystalline form obtained on drying", "setting": "[1]; [5]", "result": "mixture of form I and anhydrous form"}]}
{"smiles": "CC(C)[C@H](N)C(=O)OCCOCn1cnc2c(=O)[nH]c(N)nc21", "note": "[valacyclovir, 1-valine, 2-[(2-amino-1,6-dihydro-6-oxo-9H-purin-9-yl)methoxy]ethyl ester]", "values": [{"measurement": "absorption from the gastrointestinal tract", "setting": "[3]", "result": "rapidly absorbed"}, {"measurement": "conversion to acyclovir", "setting": "[4]", "result": "converted rapidly and virtually completely to acyclovir"}]}
{"smiles": "CC(C)[C@H](N)C(=O)OCCOCn1cnc2c(=O)nc(N)[nH]c21.Cl", "note": "[form V, valacyclovir hydrochloride]", "values": [{"measurement": "crystalline form before and after drying", "setting": "[1]; dried at 50° C. under vacuum, hydrochloride", "result": "valacyclovir hydrochloride form V"}, {"measurement": "crystalline form obtained on drying", "setting": "[1]; [5]", "result": "form V"}]}
